Values joined by “and” are separate entries in the source; they are usually repeats but may differ in a detail not shown here. Identical values can stand only once.
Row | melting point | Compound
1 | 158 °C | CC(CCc1oc2c(Br)cc(Br)cc2c1-c1ccc(C)o1)=NO
2 | 142 °C | C(=C\c1nn2c(COc3ccccc3)nnc2s1)/c1ccccc1
3 | 87 °C | CCCCc1c2c(cc3c1-c1ccccc1OC3)CC(C)(C)CC2=O
4 | 156 °C | C/C(=C(/C#N)c1nc2ccccc2s1)c1cc2ccccc2oc1=O
5 | 157 °C | C/C(OC/C(=N/NC(N)=O)c1ccccc1)=C(\C#N)c1ccccc1
6 | 198 °C | CC(/C=C(\C)C#Cc1ccccc1)=N/Nc1ccc([N+](=O)[O-])cc1[N+](=O)[O-]
7 | 125 °C | CC(=O)/C(=N/Nc1ccc(Cl)cc1)C(=O)C(F)(F)F
8 | 163 °C | CC(=O)ON(/C=C1\C(=O)C2(C)CCC1C2(C)C)c1ccccc1 (centres undefined)
9 | 162 °C | CC(=O)O[C@@H]1CCC2(C)C(CCC3C2CCC2(C)C3CC[C@]2(O)/C=C/c2ccccc2)C1 (some centres undefined)
10 | 163 °C | CC(C)CC1=C/C(=C/c2ccc(-c3ccc([N+](=O)[O-])cc3)o2)C(=O)O1
11 | 76 °C | CC(C)CC1=C/C(=C/c2ccc(-c3ccccc3)o2)C(=O)O1
12 | 112 °C | CC12CCC(/C(=C\Nc3ccccc3C(=O)O)C1=O)C2(C)C (centres undefined)
13 | 199 °C | Cc1ccc2c(c1)-c1c(cc3c(c1-c1ccccc1)C(=O)CC(C)(C)C3)CO2
14 | 102 °C | CCCCCCCCCCCCCCCCCC(=O)O[C@H]1[C@H](O[C@@H]2[C@@H](C)[C@H](O[C@H]3C[C@@](C)(OC)[C@@H](O)[C@H](C)O3)[C@@H](C)C(=O)O[C@H](CC)[C@@](C)(O)[C@H](O)[C@@H](C)C(=O)[C@H](C)C[C@@]2(C)O)O[C@H](C)C[C@@H]1N(C)C
15 | 115 °C | CCCCCCCCCCOc1ccc(/C=N/c2ccc(/C=C/C(=O)OCC)cc2)cc1
16 | 81 °C | CCOC(=O)/C(=N\Nc1ccccc1)C(=O)C(F)(F)F
17 | 176 °C | CCOC(=O)/C(C(N)=S)=C1/NN=C(c2ccc(Cl)cc2)O1
18 | 155 °C | CCOC(=O)Cc1cc(/C(=N/Nc2ccccc2)C(=O)OCC)c([N+](=O)[O-])cc1[N+](=O)[O-]
19 | 129 °C | CN(C)c1ccc(/C=C(\C#N)c2nc(-c3cccc4ccccc34)cs2)cc1
20 | 153 °C | CN(C)c1ccc(/C=C2\C(=O)C3CCC(C)(C2=O)C3(C)C)cc1 (centres undefined)
21 | 111 °C | Cc1ccc(-c2ccc(/C=C/C(=O)c3ccco3)o2)cc1
22 | 150 °C | Cc1ccc(-c2ccc(/C=C3\N=C(c4ccccc4)OC3=O)o2)cc1
23 | 79 °C | Cc1ccc(/C=C(/C#N)c2nc(-c3ccccc3)cs2)cc1
24 | 149 °C | Cc1ccc(/C=C(\C(N)=O)c2nc3ccccc3s2)cc1
25 | 300 °C | Cc1ccc(O)c(/N=N/c2c(O)cc(S(=O)(=O)O)c3ccccc23)c1
26 | 199 °C | Cc1ccccc1/N=N/c1ccc(/N=N/c2c(O)ccc3ccccc23)c(C)c1

Row | melting point | Compound
27 | 144 °C | O=C(O)c1ccc(N2C(=O)C3ON=C(C(=O)c4ccc(Cl)cc4)C3C2=O)cc1 (centres undefined)
28 | 212 °C | Fc1ccc(/C=N/n2c(S)nnc2C(F)(F)F)cc1
29 | 104 °C | N#C/C(=C\c1ccc(Cl)cc1)c1nc(-c2ccccc2)cs1
30 | 55 °C | O=C(/C=C1\Cc2ccccc21)c1ccccc1
31 | 133 °C | CN(C)c1ccc([N+]([O-])=CC(=O)c2ccc(C(=O)C=[N+]([O-])c3ccc(N(C)C)cc3)cc2)cc1
32 | 116 °C | CCCCC(=O)N(Cc1ccc(-c2ccccc2-c2nnn[nH]2)cc1)C(C(=O)O)C(C)C (centres undefined)
33 | 147 °C | CC(C)(C)c1ccc(C2CCC3(CC2)Cc2ccc(C(=O)Nc4ccccc4OCCCC(=O)O)cc2C3)cc1 (centres undefined)
34 | 134 °C | Cc1ccc(C)c(C(=O)O)c1
35 | 124 °C | CCOC(=O)c1cc(-c2ccccc2)n(-c2ccc(Cl)cc2Cl)n1
36 | 98 °C | CC(=O)OCC1OC(OCc2ccccc2)C(OC(C)=O)C(OC(C)=O)C1OC(C)=O (centres undefined)
37 | 5 °C | CCCCOC(=O)[C@@H](C)Oc1ccc(Oc2ccc(C(F)(F)F)cn2)cc1
38 | 162 °C | CC12CCC(C1(C)C)C(CCCc1ccccc1)(C1(CCCc3ccccc3)C(=O)C3(C)CCC1C3(C)C)C2=O (centres undefined)
39 | 194 °C | CC(NC(=O)COCCN1C(=O)c2ccccc2C1=O)C(=O)NC(CCC(=O)O)C(=O)O (centres undefined)
40 | 142 °C | CCOC(=O)c1cc2c(oc1=O)-c1ccc(OC)cc1CC2
41 | 113 °C | O=[N+]([O-])c1ccc(-c2nnc3sc(/C=C/c4ccccc4)nn23)cc1
42 | 161 °C | CC(CCc1oc2ccc([N+](=O)[O-])cc2c1-c1ccc(C)o1)=NO
43 | 129 °C (2×) and 128 °C | COc1cc(/C=C/C(=O)c2ccccc2O)ccc1O
44 | 124 °C | CC(C)(C)NCC(O)COc1cccc2c1CC(O)C(O)C2 (centres undefined)
45 | 104 °C | COc1ccc2c(c1)CC1(CCC(O)(c3ccc(C(C)(C)C)cc3)CC1)C2O (centres undefined)
46 | 131 °C | CC(C)(C)c1ccc(C2CCC3(CC2)Cc2ccc(O)cc2C3)cc1 (centres undefined)
47 | 205 °C | CCOC(=O)C1=C(C)NC(=S)NC1c1ccccc1 (centres undefined)
48 | 155 °C | [C-]#[N+]c1cnn(-c2ncnc3c2cnn3C)c1/C=C/OCC
49 | 136 °C | CC(O[S+]([O-])C(C)(C)C)C(O)(c1ccccc1)c1ccccc1 (centres undefined)
50 | 186 °C | COc1ccc(-c2csc(C(C#N)=Cc3ccc(O)cc3)n2)cc1
51 | 141 °C | COc1ccc(-c2csc(C(C#N)=Cc3cccs3)n2)cc1

Further lines, the molecule ahead of its results:

Row | Compound | melting point
52 | O=S1(=O)OC(c2cc(Br)c(O)c(Br)c2)(c2cc(Br)c(O)c(Br)c2)c2ccccc21 | 204 °C
53 | CC(=O)O[C@@H]1[C@@H](OC(C)=O)[C@H](C)O[C@H](C#N)[C@@H]1OC(C)=O | 130 °C
54 | C=C(C)[C@H]1Cc2c(ccc3c2O[C@@H]2COc4cc(OC)c(OC)cc4[C@@H]2C3=O)O1 | 166 °C
55 | CC(=O)/C(=N/Nc1cccc(C(F)(F)F)c1)C(=O)C(F)(F)F | 86 °C
56 | COc1cc2c(c(OC)c1OC)-c1ccc(OC)c(=O)cc1[C@@H](NC(C)=O)CC2 | 142 °C
57 | CC1(C)C2CCC1(C)C(O)/C2=C\CC(=O)O (centres undefined) | 52 °C
58 | CC12CCC(/C(=C/Nc3ccccc3)C1=O)C2(C)C (centres undefined) | 166 °C
59 | CC12CCC(C(=O)/C(=C\c3ccccc3[N+](=O)[O-])C1=O)C2(C)C (centres undefined) | 141 °C
60 | CC12CCC(C(O)=C/C1=N\Nc1ccccc1)C2(C)C (centres undefined) | 182 °C
61 | CCC1=C(/C=N/Nc2ccc([N+](=O)[O-])cc2[N+](=O)[O-])CCCC1 | 194 °C
62 | COC(=O)c1c(N)sc2c1CCCC2 | 128 °C
63 | CCNc1nc(NC(C)(C)C)nc(SC)n1 | 104 °C
64 | C[Si](C)(C)c1c2c(cc3c1-c1ccccc1OC3)CCCC2=O | 159 °C
65 | C[Si]1(C)O[Si](C)(C)O[Si](C)(C)O[Si](C)(C)O[Si](C)(C)O1 | -44 °C
66 | Cc1cc(C(F)(F)F)n2nc(N)c(/N=N/c3c(Br)cc(Br)cc3Br)c2n1 | 99 °C
67 | Cc1cc(C)c(NC(=O)CN(CC(=O)O)CC(=O)O)c(C)c1Br | 194 °C
68 | Cl/C(Cl)=C/C3C(C(=O)OC(C#N)c2cccc(Oc1ccccc1)c2)C3(C)C (centres undefined) | 68.5 °C
69 | Cl/C(Cl)=C/C3C(C(=O)OCc2cccc(Oc1ccccc1)c2)C3(C)C (centres undefined) | 34 °C
70 | O=Cc1ccc2c(c1[N+](=O)[O-])C(=O)c1c(Cl)c(Cl)c(Cl)c(Cl)c1C2=O | 267 °C
71 | COC1=CC(=O)CC(C)C12Oc1c(Cl)c(OC)cc(OC)c1C2=O (centres undefined) | 219 °C
72 | Oc1cc(C(F)(F)F)n2nc(-c3ccc(Cl)cc3)cc2n1 | 156 °C
73 | O=C(Nc1ccc([N+](=O)[O-])cc1[N+](=O)[O-])C(C(F)(F)F)C(F)(F)F | 121 °C
74 | CCOC(=O)c1ccc(NC(=O)C(F)(F)C(F)(F)C(F)(F)C(F)(F)C(F)(F)C(F)(F)C(F)(F)C(F)(F)F)cc1 | 136 °C
75 | Fc1ccc(C2(Cn3cncn3)OC2c2ccccc2Cl)cc1 (centres undefined) | 125 °C

Row | Compound | melting point
76 | Cn1nc(CC#N)c2c(N)ncnc21 | 137 °C
77 | c1ccc2c(c1)CC1(OCCO1)c1ccccc1CC21OCCO1 | 144 °C
78 | O=C(/C(=N/Nc1cccnc1)C(=O)C(F)(F)F)c1cccs1 | 151 °C
79 | C#CC1(O)CCC2C3CC=C4C=C(C(C)(C)C(=O)O)CCC4(C)C3CCC21C (centres undefined) | 259 °C
80 | CCCC(O)(CCC)C1(C)CCC(C(=O)O)C(C)(C)O1 (centres undefined) | 112 °C
81 | O=C(O)CCc1ccccc1 | 49 °C
82 | O=C(O)c1cc(Cl)ccc1/N=N/C1SC(=S)NC1=O (centres undefined) | 211 °C
83 | CC(=O)NC1C(OC(C)=O)OC(COC(C)=O)C(OC(C)=O)C1OC(C)=O (centres undefined) | 140 °C
84 | CC12CCC(C(=CC=C3C(=O)C4(C)CCC3C4(C)C)C1=O)C2(C)C | 240 °C
85 | CC12CCC3C(CCC4(C)CC5(CCC34C)OCCO5)C1CCC2=O (centres undefined) | 159 °C
86 | O=C1OC(=O)C23Cc4ccccc4CC12Cc1cc2c(cc1C3)CC2 (centres undefined) | 250 °C
87 | CCC1OC(=O)C(C)C(OC2CC(C)(OC)C(O)C(C)O2)C(C)C(OC2OC(C)CC(N(C)C)C2O)C(C)(O)CC(C)C(=O)C(C)C(O)C1(C)O (centres undefined) | 135 °C
88 | C=C(C)[C@@H]1CCC2=CC(=O)C[C@@H](C)[C@]2(C)C1 | 36.9 °C
89 | CC1(C)OC(=O)C(=Cc2cccc([N+](=O)[O-])c2)C(=O)O1 | 177 °C
90 | OC[C@H]1O[C@H](O[C@H]2[C@H](O)[C@@H](O)[C@@H](O[C@H]3[C@H](O)[C@@H](O)C(O)O[C@@H]3CO)O[C@@H]2CO)[C@H](O)[C@@H](O)[C@@H]1O (some centres undefined) | 133 °C
91 | CSC(SC)=C1CCCC(=C(SC)SC)C1=C(C#N)C#N | 156 °C
92 | CCSC(SCC)C(OC(C)=O)C(OC(C)=O)C(OC(C)=O)C(COC(C)=O)OC(C)=O (centres undefined) | 112 °C
93 | CC(Cc1oc2c(c3c(c4ccccc42)OC2CC(=O)OC32)c(=O)c1[Si](C)(C)C)O[Si](C)(C)C(C)(C)C (centres undefined) | 190 °C
94 | CC(CC1CC(=O)c2c3c(c4ccccc4c2O1)OC1CC(=O)OC31)O[Si](C)(C)C(C)(C)C (centres undefined) | 132 °C
95 | O=C(O)c1cnn(-c2ccc([N+](=O)[O-])cc2)c1C(F)(F)F | 201 °C
96 | O[C@H](CS)[C@H](O)CS (racemic) [1,4-dithio-dl-threitol] | 42 °C
97 | N[C@@H](Cc1ccc(F)c(F)c1)C(=O)O (racemic) [3,4-difluoro-dl-phenylalanine] | 233 °C
98 | CC1CCC(C(C)C)C(O)C1 (racemic) [dl-menthol] | 29 °C
99 | O[C@H]1CCCC[C@@H]1O (relative stereo) [trans-1,2-cyclohexanediol] | 104 °C

— the Bradley open melting point set (2014)
